{"source": "patent US20240108006A1", "about": "“PESTICIDALLY ACTIVE HETEROAROMATIC COMPOUNDS” (SYNGENTA CROP PROTECTION AG, priority 2021, published 2024)", "data": [{"test_system": "Chilo suppressalis", "assay": "Example B1: Chilo suppressalis (striped rice stemborer), artificial diet, L2 larvae", "format": "in vivo", "conditions": "144 h, application rate of 200 ppm, 6 days after infestation, read-out: control in at least one of the three categories (mortality, anti-feedant effect, or growth inhibition)", "description": "Example B1: Chilo suppressalis (Striped Rice Stemborer)\n24-well microtiter plates with artificial diet were treated with aqueous test solutions prepared from 10,000 ppm DMSO stock solutions by pipetting. After drying, the plates were infested with L2 larvae (6-8 per well). The samples were assessed for mortality, anti-feeding effect, and growth inhibition in comparison to untreated samples 6 days after infestation. Control of Chilo suppressalis by a test sample is given when at least one of the categories mortality, anti-feedant effect, and growth inhibition is higher than the untreated sample.", "units": {"percent control (mortality, anti-feedant effect or growth inhibition) at 200 ppm": "%"}, "values": [{"smiles": "C[C@@H](c1ncnn1-c1ncccn1)N1CCCN(c2cc(OC(F)(F)C(F)F)c(Cl)cc2Cl)C1=O", "note": "[Example P311, 1-[2,4-dichloro-5-(1,1,2,2-tetrafluoroethoxy)phenyl]-3-[(1S)-1-(2-pyrimidin-2-yl-1,2,4-triazol-3-yl)ethyl]hexahydropyrimidin-2-one]", "percent control (mortality, anti-feedant effect or growth inhibition) at 200 ppm": "≥ 80"}, {"smiles": "COc1cc(S(C)(=O)=O)c(NC(=O)N[C@@H](C)c2ncnn2-c2ncccn2)cc1Cl", "note": "[Example P192, 1-(5-chloro-4-methoxy-2-methylsulfonyl-phenyl)-3-[(1S)-1-(2-pyrimidin-2-yl-1,2,4-triazol-3-yl)ethyl]urea]", "percent control (mortality, anti-feedant effect or growth inhibition) at 200 ppm": "≥ 80"}, {"smiles": "Cc1cc(NC(=O)N[C@@H](C)c2ncnn2-c2ncccn2)c(C)cc1F", "note": "[Example P295, 1-(4-fluoro-2,5-dimethyl-phenyl)-3-[(1S)-1-(2-pyrimidin-2-yl-1,2,4-triazol-3-yl)ethyl]urea]", "percent control (mortality, anti-feedant effect or growth inhibition) at 200 ppm": "≥ 80"}, {"smiles": "Cc1cc(Br)ccc1NC(=O)N[C@@H](C)c1ncnn1-c1ncccn1", "note": "[Example P106, 1-(4-bromo-2-methyl-phenyl)-3-[(1S)-1-(2-pyrimidin-2-yl-1,2,4-triazol-3-yl)ethyl]urea]", "percent control (mortality, anti-feedant effect or growth inhibition) at 200 ppm": "≥ 80"}, {"smiles": "C[C@H](NC(=O)Nc1cc2c(cc1Br)CCC(=O)N2)c1ncnn1-c1ncccn1", "note": "[Example P322, 1-(6-bromo-2-oxo-3,4-dihydro-1H-quinolin-7-yl)-3-[(1S)-1-(2-pyrimidin-2-yl-1,2,4-triazol-3-yl)ethyl]urea]", "percent control (mortality, anti-feedant effect or growth inhibition) at 200 ppm": "≥ 80"}, {"smiles": "C[C@H](NC(=O)Nc1cc(C(F)(F)F)c(Cl)cc1F)c1ncnn1-c1ncccn1", "note": "[Example P393, 1-[4-chloro-2-fluoro-5-(trifluoromethyl)phenyl]-3-[(1S)-1-(2-pyrimidin-2-yl-1,2,4-triazol-3-yl)ethyl]urea]", "percent control (mortality, anti-feedant effect or growth inhibition) at 200 ppm": "≥ 80"}, {"smiles": "C[C@H](NC(=O)Nc1cc(F)c(Br)cc1F)c1ncnn1-c1ncccn1", "note": "[Example P339, 1-(4-bromo-2,5-difluoro-phenyl)-3-[(1S)-1-(2-pyrimidin-2-yl-1,2,4-triazol-3-yl)ethyl]urea]", "percent control (mortality, anti-feedant effect or growth inhibition) at 200 ppm": "≥ 80"}, {"smiles": "Cc1cc(F)c(C(F)(F)F)cc1NC(=O)N[C@@H](C)c1ncnn1-c1ncccn1", "note": "[Example P297, 1-[4-fluoro-2-methyl-5-(trifluoromethyl)phenyl]-3-[(1S)-1-(2-pyrimidin-2-yl-1,2,4-triazol-3-yl)ethyl]urea]", "percent control (mortality, anti-feedant effect or growth inhibition) at 200 ppm": "≥ 80"}, {"smiles": "C[C@H](NC(=O)Nc1cc(Br)c(F)cc1I)c1ncnn1-c1ncccn1", "note": "[Example P371, 1-(5-bromo-4-fluoro-2-iodo-phenyl)-3-[(1S)-1-(2-pyrimidin-2-yl-1,2,4-triazol-3-yl)ethyl]urea]", "percent control (mortality, anti-feedant effect or growth inhibition) at 200 ppm": "≥ 80"}, {"smiles": "Cc1cc(NC(=O)N[C@@H](C)c2ncnn2-c2ncccn2)c(Cl)cc1F", "note": "[Example P385, 1-(2-chloro-4-fluoro-5-methyl-phenyl)-3-[(1S)-1-(2-pyrimidin-2-yl-1,2,4-triazol-3-yl)ethyl]urea]", "percent control (mortality, anti-feedant effect or growth inhibition) at 200 ppm": "≥ 80"}, {"smiles": "C[C@H](NC(=O)Nc1cc2c(cc1Br)CCC2)c1ncnn1-c1ncccn1", "note": "[Example P303, 1-(6-bromoindan-5-yl)-3-[(1S)-1-(2-pyrimidin-2-yl-1,2,4-triazol-3-yl)ethyl]urea]", "percent control (mortality, anti-feedant effect or growth inhibition) at 200 ppm": "≥ 80"}, {"smiles": "Cc1cc(C)c(N2CCCC2=O)cc1NC(=O)N[C@@H](C)c1ncnn1-c1ncccn1", "note": "[Example P212, 1-[2,4-dimethyl-5-(2-oxopyrrolidin-1-yl)phenyl]-3-[(1S)-1-(2-pyrimidin-2-yl-1,2,4-triazol-3-yl)ethyl]urea]", "percent control (mortality, anti-feedant effect or growth inhibition) at 200 ppm": "≥ 80"}, {"smiles": "COc1cc(C)c(NC(=O)N[C@@H](C)c2ncnn2-c2ncccn2)cc1F", "note": "[Example P378, 1-(5-fluoro-4-methoxy-2-methyl-phenyl)-3-[(1S)-1-(2-pyrimidin-2-yl-1,2,4-triazol-3-yl)ethyl]urea]", "percent control (mortality, anti-feedant effect or growth inhibition) at 200 ppm": "≥ 80"}, {"smiles": "C[C@H](NC(=O)Nc1ccc(F)cc1C(C)(F)F)c1ncnn1-c1ncccn1", "note": "[Example P45, 1-[2-(1,1-difluoroethyl)-4-fluoro-phenyl]-3-[(1S)-1-(2-pyrimidin-2-yl-1,2,4-triazol-3-yl)ethyl]urea]", "percent control (mortality, anti-feedant effect or growth inhibition) at 200 ppm": "≥ 80"}, {"smiles": "Cc1cc(Cl)ncc1NC(=O)N[C@@H](C)c1ncnn1-c1ncccn1", "note": "[Example P318, 1-(6-chloro-4-methyl-3-pyridyl)-3-[(1S)-1-(2-pyrimidin-2-yl-1,2,4-triazol-3-yl)ethyl]urea]", "percent control (mortality, anti-feedant effect or growth inhibition) at 200 ppm": "≥ 80"}, {"smiles": "COc1cc(NC(=O)N[C@@H](C)c2ncnn2-c2ncccn2)c(Br)cc1Cl", "note": "[Example P294, 1-(2-bromo-4-chloro-5-methoxy-phenyl)-3-[(1S)-1-(2-pyrimidin-2-yl-1,2,4-triazol-3-yl)ethyl]urea]", "percent control (mortality, anti-feedant effect or growth inhibition) at 200 ppm": "≥ 80"}, {"smiles": "Cc1cc2c(cc1NC(=O)N[C@@H](C)c1ncnn1-c1ncccn1)OCO2", "note": "[Example P344, 1-(6-methyl-1,3-benzodioxol-5-yl)-3-[(1S)-1-(2-pyrimidin-2-yl-1,2,4-triazol-3-yl)ethyl]urea]", "percent control (mortality, anti-feedant effect or growth inhibition) at 200 ppm": "≥ 80"}, {"smiles": "C[C@H](NC(=O)Nc1ccc(F)cc1C(F)(F)F)c1ncnn1-c1ncccn1", "note": "[Example P116, 1-[4-fluoro-2-(trifluoromethyl)phenyl]-3-[(1S)-1-(2-pyrimidin-2-yl-1,2,4-triazol-3-yl)ethyl]urea]", "percent control (mortality, anti-feedant effect or growth inhibition) at 200 ppm": "≥ 80"}, {"smiles": "Cc1cc(F)c(C#N)cc1NC(=O)N[C@@H](C)c1ncnn1-c1ncccn1", "note": "[Example P296, 1-(5-cyano-4-fluoro-2-methyl-phenyl)-3-[(1S)-1-(2-pyrimidin-2-yl-1,2,4-triazol-3-yl)ethyl]urea]", "percent control (mortality, anti-feedant effect or growth inhibition) at 200 ppm": "≥ 80"}, {"smiles": "Cc1cc([N+](=O)[O-])c(C)cc1NC(=O)N[C@@H](C)c1ncnn1-c1ncccn1", "note": "[Example P323, 1-(2,5-dimethyl-4-nitro-phenyl)-3-[(1S)-1-(2-pyrimidin-2-yl-1,2,4-triazol-3-yl)ethyl]urea]", "percent control (mortality, anti-feedant effect or growth inhibition) at 200 ppm": "≥ 80"}, {"smiles": "Cc1cc(Br)ncc1NC(=O)N[C@@H](C)c1ncnn1-c1ncccn1", "note": "[Example P342, 1-(6-bromo-4-methyl-3-pyridyl)-3-[(1S)-1-(2-pyrimidin-2-yl-1,2,4-triazol-3-yl)ethyl]urea]", "percent control (mortality, anti-feedant effect or growth inhibition) at 200 ppm": "≥ 80"}, {"smiles": "C[C@H](NC(=O)Nc1cc(Cl)c(F)cc1F)c1ncnn1-c1ncccn1", "note": "[Example P379, 1-(5-chloro-2,4-difluoro-phenyl)-3-[(1S)-1-(2-pyrimidin-2-yl-1,2,4-triazol-3-yl)ethyl]urea]", "percent control (mortality, anti-feedant effect or growth inhibition) at 200 ppm": "≥ 80"}]}, {"test_system": "Plutella xylostella", "assay": "Example B8: Plutella xylostella (diamond back moth), artificial diet 24-well, eggs", "format": "in vivo", "conditions": "192 h, application rate of 200 ppm, 8 days after infestation, read-out: effect in at least one of the two categories (mortality or growth inhibition)", "description": "Example B8: Plutella xylostella (Diamond Back Moth)\n24-well microtiter plates with artificial diet were treated with aqueous test solutions prepared from 10,000 ppm DMSO stock solutions by pipetting. After drying, Plutella eggs were pipetted through a plastic stencil onto a gel blotting paper and the plate was closed with it. The samples were assessed for mortality and growth inhibition in comparison to untreated samples 8 days after infestation.\nThe following compounds gave an effect of at least 80% in at least one of the two categories (mortality or growth inhibition) at an application rate of 200 ppm: […]", "units": {"percent effect (mortality or growth inhibition) at 200 ppm": "%"}, "values": [{"smiles": "C[C@H](NC(=O)Nc1nc(C2CC2)cc(C2CC2)n1)c1ncnn1-c1ncccn1", "note": "[Example P33, 1-(4,6-dicyclopropylpyrimidin-2-yl)-3-[(1S)-1-(2-pyrimidin-2-yl-1,2,4-triazol-3-yl)ethyl]urea]", "percent effect (mortality or growth inhibition) at 200 ppm": "≥ 80"}, {"smiles": "COc1cc(NC(=O)N[C@@H](C)c2ncnn2-c2ncccn2)c(I)cc1Cl", "note": "[Example P288, 1-(4-chloro-2-iodo-5-methoxy-phenyl)-3-[(1S)-1-(2-pyrimidin-2-yl-1,2,4-triazol-3-yl)ethyl]urea]", "percent effect (mortality or growth inhibition) at 200 ppm": "≥ 80"}]}]}
